Assay results as given in a melting point compilation (Tetko et al.; mined from patent text by program, amines drawn as free bases though some values may be those of a salt).

Row | melting point | SMILES
1 | 114 °C | O=C(CCC1C(=S)Nc2ccccc21)NCc1ccccc1 (stereo not drawn)
2 | 118 to 119 °C | CC(C)(C)OC(=O)Nc1cc(OCc2ccccc2)c2ncccc2c1I
3 | 243 to 245 °C | Cc1cc(COc2nn3c(-c4cc(C)on4)nnc3c3ccccc23)no1
4 | 169 to 171 °C | Cc1noc(C)c1Cn1cc(N2C(=O)CNC2=O)cn1
5 | 222 to 225 °C | NC(=O)CN1C(=O)[C@@H](NC(=O)c2cc3ccccc3[nH]2)[C@H](c2ccccc2)Sc2ccccc21 (relative stereo)
6 | 281 to 283 °C | CC(=O)N1CC(C)(C)c2cc3[nH]nnc3cc21
7 | > 300 °C | O=C(O)c1c2c(nc3ccc(F)cc13)-c1ccc(-c3cccs3)cc1CCC2
8 | 114 to 115 °C | CCOC(=O)c1ccc(-c2nc(COc3ccc(COc4nn(-c5ccccc5)cc4/C=C/P(=O)(OCC)OCC)cc3OC)c(C)o2)s1
9 | 131 to 134 °C | COCCOc1ccc2cc3ccccc3cc2c1
10 | 70 to 72 °C | COc1ccc(Nc2nc(C)ccc2S(=O)(=O)c2ccc(OCc3ccccc3OC)cc2)c(C)c1
11 | 144 to 148 °C | O[C@@H]1c2cc3c(cc2CC[C@H]1NCCc1ccccc1)CCO3 (relative stereo)
12 | 245 to 249 °C | CCC1C(=O)Nc2cc3[nH]c(-c4ccc(NC(C)=O)cc4OC)nc3cc21 (stereo not drawn)
13 | 184 to 185 °C | Cc1ccc(C2C(=O)N(c3ccccc3)N(c3ccccc3)C2=O)cc1
14 | 112 °C | COCCn1nc(-c2ccc(C(C)(C)C)cc2)cc1C(=O)NCc1ccc(OC(C)(C)C(=O)O)c(C)c1
15 | 62 to 63 °C | CCOC(=O)CCCCCCC1C(=O)NC(=O)N1CCC(O)C1CCCCC1 (stereo not drawn)
16 | 52.5 to 54 °C | COCCOCn1c(Cl)c(C=O)c2ccccc21
17 | 174 to 176 °C | COc1ccc(C(O)c2ccccn2)c(Cl)c1Cl (stereo not drawn)
18 | 114 °C | CCOC(=O)c1cc(-c2ccc(Cl)cc2Cl)c(-c2ccc(Cl)cc2)nc1C
19 | 265 to 268 °C | CCCCc1c(/C=C/c2ccccc2OCC)nc2ccc(C(=O)O)cn2c1=O
20 | 165 to 166 °C | C=Cc1ccc(-c2nc(C)c3c(n2)sc2c(OCC)nc(N4CCNCC4)nc23)cc1
21 | 74 to 76 °C | O=c1c(Cl)c(Cl)cnn1C1CCCCO1 (stereo not drawn)
22 | 43 to 43.5 °C | CC(C)(C)CCNC(=O)N(CCCl)N=O
23 | 154 to 156 °C | COc1cc2ncnc(N3c4ccccc4CC3C)c2cc1OC (stereo not drawn)

Row | melting point | SMILES
24 | 158 to 161 °C | O=C(CCCCC1CCSS1)Nc1nc(=S)ss1 (stereo not drawn)
25 | 178 to 180 °C | Cc1ccc(C2c3c(C)c(N4CCN(c5ccccc5[N+](=O)[O-])CC4)c(C)c(C)c3OC2(C)C)cc1 (stereo not drawn)
26 | 78 to 80 °C | CNC(=O)c1cc2c(Oc3ccc(Br)cc3)cncc2s1
27 | 122 to 123 °C | CCCCc1nc(Cl)c(Cl)[nH]1
28 | 110 to 111 °C | COc1cc(OC)cc(-c2ncn(-c3cc(OC)c(OC)c(OC)c3)c2-c2ccc(OC)c(O)c2)c1
29 | 94.5 to 95.5 °C | CC(=O)c1ccc(-c2ccc(Br)cc2F)cc1
30 | 158 to 160 °C | COc1ccc(CCN2C=CC=C3C2=Nc2ccccc2OS3(=O)=O)cc1O
31 | 63 to 64 °C | N#Cc1ccc(NCc2cccc(F)c2)cc1
32 | 98 to 100 °C | COc1ccc2occ(N)c(=O)c2c1
33 | 262 to 263 °C | Nc1nc2ccccc2c2c1nc(CO)n2Cc1cc(-c2ccc(F)cc2)no1
34 | 222 °C | COC(=O)c1nc2cc(OC)c(OC)cc2n(C)c1=O
35 | 160 to 162 °C | Cc1cc(F)ccc1-c1nc(NC(C)(CO)CO)nc2c1ccc(=O)n2-c1ccccc1F
36 | 217 to 218 °C | COc1c(Cl)cc(Cn2c(S)nc3ccccc32)cc1Cl
37 | 212 to 214 °C | Cc1n[nH]c(-c2ccccc2)c1-c1ccncc1
38 | 61 to 63 °C | OCc1ccnc(F)c1
39 | 181 to 182 °C | N#Cc1cnc2sc(I)cc2c1Cl
40 | 115 to 116 °C | CCOc1nn(Cc2ccc(OCc3ccccc3)cc2)cc1CCC(=O)O
41 | 202 to 205 °C | COc1ccc2c(c1)CCN1C(=O)C3=C(CC21)NCCC3 (stereo not drawn)
42 | 65 to 69 °C | BrC1=Cc2ccccc2Nc2ccccc21
43 | > 250 °C | CC1COCC(C)N1c1ccc(-c2nc(C(=O)Nc3nccs3)c(-c3ccc(Cl)cc3)[nH]2)cc1 (stereo not drawn)
44 | 126 °C | CC(C(=O)NC(=O)OC1CCCCC1)(c1ccccc1)c1ccccc1
45 | 140 to 141 °C | O=C1NC(=O)C(CC#Cc2ccc(Cl)cc2)(S(=O)(=O)c2ccccn2)S1 (stereo not drawn)
46 | 45 to 46 °C | c1ccc(-c2cncs2)cc1

Row | melting point | SMILES
47 | 103 °C | O=C(NC(CCc1ccccc1)c1nnco1)c1ccc2[nH]c(-c3ccncc3)nc2c1 (stereo not drawn)
48 | 188 to 189 °C | CCOC(=O)c1ncc2c(c1CBr)c1ccccc1n2C(C)=O
49 | 192 to 196 °C | Cc1[nH]c2cc(C(=O)c3ccccc3)ccc2c1C=O
50 | 98 to 99 °C | Cc1cc(Oc2ncc(C(F)(F)F)cc2Cl)nn1C(=O)NC1CC1
51 | 228 to 230 °C | CS(=O)(=O)c1csc(C(=O)C2C(=O)N(C(N)=O)c3ccc(Cl)cc32)c1 (stereo not drawn)
52 | 138 to 141 °C | CC(C(=O)NN)c1cn[nH]c1-c1ccc(-c2ccccc2)cc1O (stereo not drawn)
53 | 221 to 223 °C | Cc1cccc(OC2=NS(=O)(=O)N=C(Oc3cccc(C)c3)N2C)c1
54 | 155 to 157 °C | COc1nc(NC(=O)NS(=O)(=O)c2ccccc2OC(F)F)nc(OCC(F)(F)F)n1
55 | 134 to 136 °C | O=[N+]([O-])c1cc(Cl)c(Cl)cc1NC1CCC(O)C1O (stereo not drawn)
56 | 218 to 220 °C | Cc1cc(N2CC=C(C(=O)O)CC2)c2cccc(-c3ccc(Cl)cc3Cl)c2n1
57 | 112 to 114 °C | CCCC[C@H](NC(=O)[C@H](CC(C)C)NC(=O)c1ccc(F)c(C(F)(F)F)c1)C(=O)CSCc1ccco1
58 | 117 to 120 °C | NC(=O)COC(=O)c1ccccc1Cl
59 | 197 to 200 °C | O=C1N(Cc2cncc(F)c2)c2ccccc2C12COc1cc3c(cc12)OCCO3 (stereo not drawn)
60 | 179 to 181 °C | CON1C(C)(C)CC(OC(=O)c2ccc(C(=O)OC3CC(C)(C)N(OC)C(C)(C)C3)cc2)CC1(C)C
61 | 142 to 143 °C | CC(C)C1Cc2cnc3c(c2C1(O)CCN)CCO3 (stereo not drawn)
62 | > 300 °C | Cc1cccc2c1CCC2=NNC(=N)N
63 | 139 to 142 °C | O=C=Nc1ccc(OC(=O)COCCOCC(=O)Oc2ccc(N=C=O)cc2)cc1
64 | 145 to 146 °C | CN1C(=O)CCC2(C)c3ccc(C(c4ccccc4)c4ccccc4)cc3CCC12 (stereo not drawn)
65 | 97 to 98 °C | CN(CCOc1ccc(C=O)cc1)c1nc2ccccc2o1
66 | 224 °C | Cn1c(=O)n(Cc2cccs2)c(=O)c2cc(C(=O)NCc3ccc4c(c3)OCO4)ccc21
67 | 130 to 133 °C | Cc1ccc(C(=O)COC(=O)NC(C)C)cc1

Row | SMILES | melting point
68 | O=[N+]([O-])c1nccn1CC(O)CC1C2CCCN21 (stereo not drawn) | 81 to 81.5 °C
69 | Cc1ccc(OC(=O)CCCC(=O)OOC(C)(C)C)cc1 | 50 to 55 °C
70 | CCN(C(C)=O)c1cccc(-c2ccn3ncc(C#N)c3n2)c1 | 194 to 196 °C
71 | Oc1nnc(Cl)cc1N1CCNCC1 | 35 °C
72 | Cn1c(=O)cc(CN2CCC(c3c[nH]c4ccccc34)CC2)c2ccccc21 | 228 to 229 °C
73 | CNC(=NOC)C1=Nc2ccc(Cl)cc2C(c2ccccc2F)=NC1 | 140 to 142 °C
